Experimental data as given in PubChem BioAssay (NCI).
“And” between values parts separate entries of the source, which are not always exact repeats. Equal values may be shown once.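 In this assay, cells in 96-well plates receive the compound at five concentrations for 48 hours. Endpoints are linearly interpolated between the surrounding concentrations. GI50 marks 50% less growth. TGI: total growth inhibition.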

Experiments:
Assay in all cases: growth of human tumour cells (NCI), 48 h
MALME-3M melanoma = test system: MALME-3M melanoma
HT29 colon = test system: HT29 colon
CCRF-CEM leukemia = test system: CCRF-CEM leukemia
MOLT-4 leukemia = test system: MOLT-4 leukemia
DU-145 prostate = test system: DU-145 prostate
EKVX NSCLC = test system: EKVX NSCLC
UO-31 renal = test system: UO-31 renal
A498 renal = test system: A498 renal
LOX IMVI melanoma = test system: LOX IMVI melanoma
SNB-75 CNS = test system: SNB-75 CNS

Structure (SMILES)	GI50 (MALME-3M melanoma) [µM]	TGI (MALME-3M melanoma) [µM]	GI50 (HT29 colon) [µM]	TGI (HT29 colon) [µM]	GI50 (CCRF-CEM leukemia) [µM]	TGI (CCRF-CEM leukemia) [µM]	GI50 (MOLT-4 leukemia) [µM]	TGI (MOLT-4 leukemia) [µM]	GI50 (DU-145 prostate) [µM]	TGI (DU-145 prostate) [µM]	GI50 (EKVX NSCLC) [µM]	TGI (EKVX NSCLC) [µM]	GI50 (UO-31 renal) [µM]	TGI (UO-31 renal) [µM]	GI50 (A498 renal) [µM]	TGI (A498 renal) [µM]	GI50 (LOX IMVI melanoma) [µM]	TGI (LOX IMVI melanoma) [µM]	GI50 (SNB-75 CNS) [µM]	TGI (SNB-75 CNS)
NCCCn1c2c(c3ccc([N+](=O)[O-])cc3c1=O)C(=O)c1cc(Cl)ccc1-2	< 0.01	0.195	< 0.01	0.225	< 0.01	0.0104	< 0.01	< 0.0114	< 0.01	0.115	0.0241	0.189	< 0.01	0.122	0.0274	0.596	< 0.01	0.117	< 0.01	1.2 µM
CC1(C)CC(O)CCCCCCOc2c(CN)cccc2NC(=O)c2nc(cnc2N)-c2ccc(cc2)S1(=O)=O (stereo not given)	1.31	2.81	0.309	3.75	< 0.01	5.53	< 0.0122	2.01	0.0359	2.07	1.93	5.78	0.648	2.25	0.0151	0.84	1.26	2.88	0.223	1.74 µM
CO[C@H]1/C=C/C[C@H](C)[C@@H](C)S(=O)(=O)NC(=O)c2ccc3c(c2)N(C[C@@H]2CC[C@H]21)C[C@@]1(CCCc2cc(Cl)ccc21)CO3	1.97	4.14	2.13	5.16	1.3	5.03	1.73	8.8	4.56	15.3	1.91	6.76	3.19	11.1	1.45	3.47	1.84	3.41	1.34	3.03 µM
Cc1cc(S(=O)(=O)Nc2nc3ccsc3c(=O)n2Cc2ccccc2)c(S)cc1Cl	21.2	50.1	43.7	> 100	34	> 100	37.9	> 100	34.6	> 100	21.8	77.3	86	> 100	14.2	49.3	31.1	65.3	> 100	> 100 µM
O=C1c2c(O)cccc2C(C(=O)CCCC(=O)C2c3cccc(O)c3C(=O)c3c(O)cccc32)c2cccc(O)c21	–	2.85	–	2.48	–	8.02	–	17.5	–	2.02	–	2.35	–	1.08	–	3.66	–	1.8	–	2.82 µM
C=C(C)C1CCC2(CO)C(O)CC3(C)C(CCC4C5(C)CCC(O)C(C)(C)C5CCC43C)C12 (stereo not given)	–	32	–	54.7	–	> 100	–	> 100	–	> 100	–	32.6	–	26.7	–	31.9	–	24.2	–	9.5 µM
Cc1ccc(C(=O)Nc2ccccc2C(=O)N/N=C(\c2ccccc2)c2ccccn2)cc1	0.752	> 100	0.25	> 100	0.167	> 100	0.374	> 100	0.434	> 100	0.207	> 100	0.107	2.66	0.63	–	0.302	> 100	1.18	> 39.2 µM
Clc1ccc2c(NCCN3CCN(c4ccnc(N5CCCC5)n4)CC3)ccnc2c1	1.91	3.74	1.34	12.2	3.65	32.3	3.58	38.2	5.71	20.3	10.2	24.4	1.82	4.47	2.39	8.51	1.72	3.55	1.76	7.62 µM
C/C=C/COc1cc(NC(=S)c2ccoc2C)ccc1OC	–	> 100	–	> 100	–	> 100	–	> 100	–	> 100	–	> 100	–	> 100	–	> 100	–	> 100	–	> 100 µM
c1ccc([P+](CCC[P+](c2ccccc2)(c2ccccc2)c2ccccc2)(c2ccccc2)c2ccccc2)cc1	–	> 100	9.89	> 100	7.26	> 100	35.9	> 100	19.9	> 100	–	> 100	–	> 100	14.6	> 100	–	> 100	4.56	86 µM and 67.6 µM
CCN1CCN(c2cc(C)nc(NCc3cc(Nc4ccnc5cc(Cl)ccc45)ccc3F)n2)CC1	1.95	3.91	0.957	5.32	2.55	> 100	2.34	> 100	2.74	42.3	5.45	> 100	1.61	3.89	1.89	8.05	1.74	3.6	10.5	30.8 µM
C[C@@H]1CCC2[C@@H](C)[C@H](OC(=O)CCC(=O)NCCNC(=O)Cc3cc(=O)oc4cc(N(C)C)ccc34)O[C@@H]3O[C@]4(C)CC[C@@H]1C23OO4 (stereo not given in full)	2.02	> 100	1.05	19.6	1.57	> 75.7	1.75	37.9	10.3	24	0.645	9.47	0.897	4.15	7.5	> 89.9	0.566	2.31	8.22	29.2 µM
O=C1C(Cl)=C(Nc2ccc3c(c2NC2=C(Cl)C(=O)c4ccccc4C2=O)C(=O)c2ccccc2C3=O)C(=O)c2ccccc21	0.505	1.72	3.12	8.54	2.48	24.7	3.25	17.5	1.57	2.97	1.83	4.18	1.75	9.01	2.02	4.2	0.872	10.4	4.35	13.9 µM
O=C(Nn1c2c(sc1=NC1CC1)C(=O)c1ccccc1C2=O)c1cc2ccc1CCc1ccc(cc1)CC2	0.57	1.75	3.32	28.7	2.53	> 100	2.22	8.89	1.85	3.43	1.87	12.5	0.85	2.77	20.7	63.4	0.966	2.62	1.32	6.04 µM
O=C1/C(=C/c2ccc(C(F)(F)F)cc2)COc2ccc(O)cc21	2.05	5.1	2.03	4.32	0.228	1.42	2.33	21.2	3.23	12	10.7	22.5	1.26	2.67	11.6	24	1.69	3.11	13.9	27.8 µM
